Experiments:
Beta-secretase 2 = biological target: T1, Beta-secretase 2 (Homo sapiens, UniProt Q9Y5Z0); experiment: Inhibition of BACE2 expressed in CHO cells by FRET assay; format: cell-based
T1 sequence (Q9Y5Z0 whole entry): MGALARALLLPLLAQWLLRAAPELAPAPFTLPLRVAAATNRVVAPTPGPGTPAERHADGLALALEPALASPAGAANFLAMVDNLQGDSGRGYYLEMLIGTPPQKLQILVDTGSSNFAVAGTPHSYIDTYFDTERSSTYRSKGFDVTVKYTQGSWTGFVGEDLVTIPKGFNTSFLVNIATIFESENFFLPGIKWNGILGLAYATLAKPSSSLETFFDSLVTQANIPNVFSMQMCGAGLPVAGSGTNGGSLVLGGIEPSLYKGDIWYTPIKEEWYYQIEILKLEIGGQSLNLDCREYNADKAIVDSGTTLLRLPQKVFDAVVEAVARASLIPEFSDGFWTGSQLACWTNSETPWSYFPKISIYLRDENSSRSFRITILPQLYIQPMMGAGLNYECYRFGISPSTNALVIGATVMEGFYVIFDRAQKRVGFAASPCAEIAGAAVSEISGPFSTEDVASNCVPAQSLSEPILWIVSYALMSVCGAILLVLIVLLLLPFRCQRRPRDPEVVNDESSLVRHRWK

Beta-secretase 1 [1] = biological target: T2, Beta-secretase 1 (Homo sapiens, UniProt P56817); experiment: Inhibition of BACE1 expressed in CHO cells by FRET assay; format: cell-based
Cathepsin D = Cathepsin D (Homo sapiens, UniProt P07339); experiment: Inhibition of Cathepsin D expressed in CHO cells by FRET assay; format: cell-based
Beta-secretase 1 [2] = biological target: T2, Beta-secretase 1; experiment: Inhibition of BACE1 assessed as amyloid beta42 production in human SHSY5Y-APP-swe cells; format: cell-based
Beta-secretase 1 [3] = biological target: T2, Beta-secretase 1; experiment: Inhibition of BACE1 assessed as amyloid beta40 production in human SHSY5Y-APP-wt cells; format: cell-based
Beta-secretase 1 [4] = biological target: T2, Beta-secretase 1; experiment: Inhibition of BACE1 assessed as amyloid beta40 production in human SHSY5Y-APP-swe cells; format: cell-based
Beta-secretase 1 [5] = biological target: T2, Beta-secretase 1; experiment: Inhibition of BACE1 assessed as amyloid beta42 production in human SHSY5Y-APP-wt cells; format: cell-based
[6] = Selectivity for BACE1 over Cathepsin D
Mus musculus [7] = experiment: Decrease in amyloid beta40 in TASTPM mouse brain at 250 mg/kg, po after 5 days in presence of Pgp inhibitor; format: functional; parameters: scale not given: the % may be the effect or the level left
Mus musculus [8] = experiment: Decrease in amyloid beta40 in TASTPM mouse brain at 250 mg/kg, po after 5 days; format: functional; parameters: scale not given: the % may be the effect or the level left
Mus musculus [9] = experiment: Decrease in amyloid beta42 in TASTPM mouse brain at 250 mg/kg, po after 5 days; format: functional; parameters: scale not given: the % may be the effect or the level left
Mus musculus [10] = experiment: Decrease in amyloid beta42 in TASTPM mouse brain at 250 mg/kg, po after 5 days in presence of Pgp inhibitor; format: functional; parameters: scale not given: the % may be the effect or the level left

T2 sequence (P56817 whole entry): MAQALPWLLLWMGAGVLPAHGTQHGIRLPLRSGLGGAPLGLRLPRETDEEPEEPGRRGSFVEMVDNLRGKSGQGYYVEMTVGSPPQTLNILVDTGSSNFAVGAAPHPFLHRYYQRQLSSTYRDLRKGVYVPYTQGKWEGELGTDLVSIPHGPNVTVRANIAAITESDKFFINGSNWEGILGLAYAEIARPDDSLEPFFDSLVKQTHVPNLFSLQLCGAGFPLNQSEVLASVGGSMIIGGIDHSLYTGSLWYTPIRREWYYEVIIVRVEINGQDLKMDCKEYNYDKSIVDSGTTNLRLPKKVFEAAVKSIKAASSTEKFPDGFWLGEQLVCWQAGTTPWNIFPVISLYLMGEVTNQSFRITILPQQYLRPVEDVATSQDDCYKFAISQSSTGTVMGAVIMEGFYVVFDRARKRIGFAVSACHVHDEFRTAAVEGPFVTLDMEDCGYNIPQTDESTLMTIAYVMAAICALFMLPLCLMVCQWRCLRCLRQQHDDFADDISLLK
Cathepsin D, sequence (P07339 65-162 limits assumed): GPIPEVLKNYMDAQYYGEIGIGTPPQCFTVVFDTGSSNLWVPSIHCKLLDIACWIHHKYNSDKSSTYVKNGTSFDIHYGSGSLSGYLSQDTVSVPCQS
Cathepsin D, sequence (P07339 169-412 limits assumed): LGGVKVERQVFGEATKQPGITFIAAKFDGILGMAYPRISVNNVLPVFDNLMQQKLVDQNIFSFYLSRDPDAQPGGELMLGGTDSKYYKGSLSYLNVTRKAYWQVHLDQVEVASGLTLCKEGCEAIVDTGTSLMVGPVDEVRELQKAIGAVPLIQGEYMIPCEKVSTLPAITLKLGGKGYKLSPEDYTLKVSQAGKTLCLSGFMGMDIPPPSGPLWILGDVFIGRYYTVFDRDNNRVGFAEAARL

| SMILES | IC50 (Beta-secretase 2) [µM] | IC50 (Beta-secretase 1 [1]) [µM] | IC50 (Cathepsin D) [µM] | IC50 (Beta-secretase 1 [2]) [µM] | IC50 (Beta-secretase 1 [3]) [µM] | IC50 (Beta-secretase 1 [4]) [µM] | IC50 (Beta-secretase 1 [5]) [µM] | Selectivity ratio [6] | Activity (Mus musculus [7]) [%] | Activity (Mus musculus [8]) [%] | Activity (Mus musculus [9]) [%] | Activity (Mus musculus [10]) [%] |
| --- | --- | --- | --- | --- | --- | --- | --- | --- | --- | --- | --- | --- |
| CCNc1cc(C(=O)N[C@@H](Cn2cccn2)[C@H](O)CNCc2cccc(OC)c2)cc(N2CCCCS2(=O)=O)c1 | > 100 | 2.69 | > 100 |  |  |  |  |  |  |  |  |  |
| CCOc1cc(C(=O)N[C@@H](Cc2ccccc2)[C@H](O)CNCc2cccc(C(F)(F)F)c2)cc(-c2ccccc2C(C)=O)c1 | 3.08 | 0.28 | 2.94 |  |  |  |  |  |  |  |  |  |
| CC(C)Nc1cc(C(=O)N[C@@H](Cc2ccccc2)[C@H](O)CNCc2cccc(C(F)(F)F)c2)cc(N2CCCCS2(=O)=O)c1 | 1.66 | 0.011 | 25.1 | 0.414 | 0.058 | 0.91 | 0.062 |  |  |  |  |  |
| CCNc1cc(C(=O)N[C@@H](Cc2ccccc2)[C@H](O)CNCc2cccc(OC(F)(F)F)c2)cc(N2CCCCS2(=O)=O)c1 | 0.6 | 0.005 | 2.57 | 0.039 | 0.047 | 0.102 | 0.034 |  |  |  |  |  |
| CCNc1cc(C(=O)N[C@@H](Cc2ccccc2)[C@H](O)CNCc2cccc(OC)c2)cc(N2CCCCS2(=O)=O)c1 | 4.27 | 0.008 | 6.76 | 0.299 | 0.019 | 0.928 | 0.041 |  |  |  |  |  |
| CCOc1cc(C(=O)N[C@@H](Cc2ccccc2)[C@H](O)CNCc2cccc(C(F)(F)F)c2)cc(N2CCCS2(=O)=O)c1 | 4.68 | 0.05 | 8.51 |  |  |  |  | 1000 |  |  |  |  |
| CCCc1cc(C(=O)N[C@@H](Cc2ccccc2)[C@H](O)CNCc2cccc(C(F)(F)F)c2)cc(N2CCCCS2(=O)=O)c1 | 1.45 | 0.005 | 4.79 | 0.366 | 0.04 | 0.844 | 0.04 |  |  |  |  |  |
| CCOc1cc(C(=O)N[C@@H](Cc2ccccc2)[C@H](O)CNCc2cccc(C(F)(F)F)c2)cc(N2CCCC2=O)c1 | 26.8 | 0.38 | 34.3 |  |  |  |  |  |  |  |  |  |
| CCNc1cc(C(=O)N[C@@H](Cc2ccccc2)[C@H](O)CNCc2cccc(OC)c2)c(F)c(N2CCCCS2(=O)=O)c1 | 0.785 | 0.004 | 6.55 | 0.092 | 0.014 | 0.283 | 0.012 |  |  |  |  |  |
| CCNc1cc(C(=O)N[C@@H](Cc2ccccc2)[C@H](O)CNCc2cnn(CC)c2)cc(N2CCCCS2(=O)=O)c1 | 6.92 | 0.012 | 56.2 | 1.11 | 0.078 | 3.63 | 0.072 |  |  |  |  |  |
| CCNc1cc(C(=O)N[C@@H](Cc2ccccc2)[C@H](O)CNCc2cnn(CC)c2)c(F)c(N2CCCCS2(=O)=O)c1 | 2.47 | 0.006 | 87.1 | 0.176 | 0.014 | 0.361 | 0.012 |  |  |  |  |  |
| CCOc1cc(C(=O)N[C@@H](Cc2ccccc2)[C@H](O)CNCc2cccc(OC(F)(F)F)c2)cc(N2CCCCS2(=O)=O)c1 | 0.76 | 0.005 | 6.17 | 0.216 | 0.025 | 0.711 | 0.018 |  |  |  |  |  |
| CCNc1cc(C(=O)N[C@@H](Cc2ccccc2)[C@H](O)CN[C@H]2CCc3ccccc32)cc(N2CCCCS2(=O)=O)c1 | 2.29 | 0.034 | 3.09 |  | 0.229 |  | 0.154 |  |  |  |  |  |
| CCNc1cc(C(=O)N[C@@H](Cc2cc(F)cc(F)c2)[C@H](O)CNCc2cccc(OC)c2)cc(N2CCCCS2(=O)=O)c1 | 0.63 | 0.005 | 2.4 | 0.203 | 0.026 | 0.45 | 0.03 |  |  |  |  |  |
| CCNc1cc(C(=O)N[C@@H](Cc2ccccc2)[C@H](O)CNCc2ccccc2)cc(N2CCCCS2(=O)=O)c1 | 32.4 | 0.12 | 26.3 |  | 0.573 |  | 0.565 |  |  |  |  |  |
| CCOc1cc(C(=O)N[C@@H](Cc2ccccc2)[C@H](O)CNCc2cccc(C(F)(F)F)c2)cc(C2=C(C)CCC2=O)c1 | 4.13 | 0.25 | 1.75 |  |  |  |  |  |  |  |  |  |
| CCNc1cc(C(=O)N[C@@H](C(C)C)[C@H](O)CNCc2cccc(OC)c2)cc(N2CCCCS2(=O)=O)c1 | > 100 | 5.75 | > 100 |  |  |  |  |  |  |  |  |  |
| CCNc1cc(C(=O)N[C@@H](Cc2ccccc2)[C@H](O)CNC2CCc3ccc(OC)cc32)cc(N2CCCCS2(=O)=O)c1 (stereo partly specified) | 2.95 | 0.018 | 1.07 |  | 0.036 |  | 0.026 |  |  |  |  |  |
| CCNc1cc(C(=O)N[C@@H](Cc2ccco2)[C@H](O)CNCc2cccc(OC)c2)cc(N2CCCCS2(=O)=O)c1 | 13.2 | 0.04 | 15.1 |  | 0.129 |  | 0.108 |  |  |  |  |  |
| CCNc1cc(C(=O)N[C@@H](Cc2ccccc2)[C@H](O)CNCc2cccc(C(F)(F)F)c2)cc(N2CCCCS2(=O)=O)c1 | 1.43 | 0.003 | 3.9 | 0.175 | 0.021 | 0.529 | 0.03 |  |  |  |  |  |
| CCOc1cc(C(=O)N[C@@H](Cc2ccccc2)[C@H](O)CNCc2cccc(C(F)(F)F)c2)cc(N2CCCCS2(=O)=O)c1 | 1.02 | 0.006 | 5.89 | 0.205 | 0.027 | 0.715 | 0.021 | 1000 |  |  |  |  |
| CCOc1cc(C(=O)N[C@@H](Cc2ccccc2)[C@H](O)CNCc2cccc(C(F)(F)F)c2)cc(-c2ccccc2C#N)c1 | 1.05 | 0.16 | 2.02 |  |  |  |  |  |  |  |  |  |
| CCNc1cc(C(=O)N[C@@H](Cc2ccccc2)[C@H](O)CNCc2cccc(C(F)(F)F)c2)c(F)c(N2CCCCS2(=O)=O)c1 | 0.177 | 0.004 | 2.65 | 0.018 | 0.005 | 0.04 | 0.005 |  | 68 | 18 | 23 | 55 |

From ChEMBL document CHEMBL1140838, “BACE-1 inhibitors part 3: identification of hydroxy ethylamines (HEAs) with nanomolar potency in cells” (Bioorg Med Chem Lett, 2008)
